Data from PMC7365701 (Journal of medicinal chemistry, 2020).

What was measured:
[1] = molecular target: human ether-á-go-go (hERG) potassium channel (Homo sapiens, UniProt Q12809); assay: hERG automated whole cell patch-clamp; format: cell-based; conditions: tested at 0.1, 1 and 10 μM; ≥50% inhibition at 10 μM flagged as toxic
[2] = test system: retinal vascular leakage in diabetic rats; assay: STZ-induced diabetic rat model, retinal vascular permeability; format: in vivo, Brown Norway rat; conditions: daily i.p. for 28 days
PPARα = molecular target: T1, PPARα (Homo sapiens, UniProt Q07869); assay: Cellular thermal shift assay; format: cell-based; conditions: MIO-M1 cells, 45.5 °C
T1 sequence (Q07869 1-468): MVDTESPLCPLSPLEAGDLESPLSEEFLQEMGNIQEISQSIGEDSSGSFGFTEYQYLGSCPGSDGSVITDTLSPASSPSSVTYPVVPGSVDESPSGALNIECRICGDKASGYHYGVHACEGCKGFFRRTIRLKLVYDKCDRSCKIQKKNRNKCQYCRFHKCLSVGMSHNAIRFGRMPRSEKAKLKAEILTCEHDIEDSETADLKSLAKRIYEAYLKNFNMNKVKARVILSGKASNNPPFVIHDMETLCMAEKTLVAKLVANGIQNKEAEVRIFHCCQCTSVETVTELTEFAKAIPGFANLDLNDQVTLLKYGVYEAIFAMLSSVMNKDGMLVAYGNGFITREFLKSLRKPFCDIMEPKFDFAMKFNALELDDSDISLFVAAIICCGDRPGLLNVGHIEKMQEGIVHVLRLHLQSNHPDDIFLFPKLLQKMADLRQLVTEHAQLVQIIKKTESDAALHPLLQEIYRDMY

[3] = molecular target: T2, Ligand Binding Domain of PPARα (Homo sapiens, UniProt Q07869); assay: Isothermal titration calorimetry; conditions: 4b vs 4a; 4u vs 4b
T2 sequence (Q07869 239-466 limits assumed): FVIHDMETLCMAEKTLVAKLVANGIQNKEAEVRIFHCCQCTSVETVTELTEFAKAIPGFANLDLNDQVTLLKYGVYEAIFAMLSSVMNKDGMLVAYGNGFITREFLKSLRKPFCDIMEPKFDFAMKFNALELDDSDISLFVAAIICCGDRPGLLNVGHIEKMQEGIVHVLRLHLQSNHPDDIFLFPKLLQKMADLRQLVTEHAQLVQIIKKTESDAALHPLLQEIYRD

[4] = Stability in human liver microsomes; format: in vitro ADME; conditions: compared with 4a (A91)
[5] = Stability in rat liver microsomes; format: in vitro ADME; conditions: compared with 4a (A91)
[6] = test system: cytochrome P450 isoforms (1A, 2C9, 2C19, 2D6, and 3A); assay: Time-dependent CYP inhibition in pooled human liver microsomes; format: in vitro ADME; conditions: 10 μM, pre-incubation ± NADPH
human PPARα (hPPARα) [7] = molecular target: T3, human PPARα (hPPARα) (Homo sapiens, UniProt Q07869); assay: cell-based; conditions: EC50 hPPARα (cellular potency), luciferase reporter
T3 sequence (Q07869 1-468): T1 sequence (Q07869 1-468)

human PPARα (hPPARα) [8] = molecular target: T3, human PPARα (hPPARα)

Chain of human ether-á-go-go (hERG) potassium channel (Q12809 whole entry): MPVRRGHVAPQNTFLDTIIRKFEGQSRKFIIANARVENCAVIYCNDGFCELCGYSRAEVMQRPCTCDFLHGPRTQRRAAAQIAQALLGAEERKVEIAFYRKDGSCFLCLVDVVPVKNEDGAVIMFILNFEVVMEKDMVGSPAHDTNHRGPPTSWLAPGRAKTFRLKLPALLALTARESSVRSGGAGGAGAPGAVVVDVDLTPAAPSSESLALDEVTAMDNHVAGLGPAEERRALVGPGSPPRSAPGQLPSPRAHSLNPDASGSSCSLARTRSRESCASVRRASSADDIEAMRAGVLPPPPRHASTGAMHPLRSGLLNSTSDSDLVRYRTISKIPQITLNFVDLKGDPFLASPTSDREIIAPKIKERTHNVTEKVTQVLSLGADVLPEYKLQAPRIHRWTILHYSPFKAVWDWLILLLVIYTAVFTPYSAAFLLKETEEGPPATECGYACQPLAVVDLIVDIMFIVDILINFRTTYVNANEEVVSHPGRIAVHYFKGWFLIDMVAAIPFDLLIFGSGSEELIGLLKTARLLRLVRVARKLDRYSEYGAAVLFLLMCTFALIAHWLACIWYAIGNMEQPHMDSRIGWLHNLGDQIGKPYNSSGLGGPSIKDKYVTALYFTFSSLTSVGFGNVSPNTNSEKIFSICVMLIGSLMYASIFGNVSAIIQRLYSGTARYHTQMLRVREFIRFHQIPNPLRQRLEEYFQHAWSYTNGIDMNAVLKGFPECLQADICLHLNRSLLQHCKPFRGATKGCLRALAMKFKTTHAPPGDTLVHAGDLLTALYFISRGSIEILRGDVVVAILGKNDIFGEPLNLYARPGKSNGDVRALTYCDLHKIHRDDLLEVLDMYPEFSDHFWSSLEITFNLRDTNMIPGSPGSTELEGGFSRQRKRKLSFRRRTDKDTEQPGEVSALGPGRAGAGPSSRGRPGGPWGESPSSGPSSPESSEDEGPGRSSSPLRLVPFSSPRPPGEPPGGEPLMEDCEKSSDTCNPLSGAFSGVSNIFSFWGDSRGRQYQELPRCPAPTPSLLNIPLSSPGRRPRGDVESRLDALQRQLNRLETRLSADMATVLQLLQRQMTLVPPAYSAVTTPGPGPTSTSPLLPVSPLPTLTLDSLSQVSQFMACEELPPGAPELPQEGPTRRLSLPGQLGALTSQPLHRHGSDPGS

COc1ccc(COc2ccc(CNc3cccc(C(=O)O)c3)cc2)cc1 [Compound 4a, 3-((4-((4-methoxybenzyl)oxy)benzyl)amino)benzoic acid]
hERG channel liability [1]: low potency | hepatomegaly (liver phenotype) [2]: lack signs of hepatomegaly | retinal vascular leakage ([2]; Evans blue tracer): reduces retinal vascular leakage in diabetic rats to the range of the non-diabetic cohort

Cc1cc(CNc2cccc(C(=O)O)c2)ccc1OCc1ccc(F)cc1 [Compound 4u, 3-((4-((4-fluorobenzyl)oxy)-3-methylbenzyl)amino)benzoic acid]
rescue of PPARα stability (PPARα): 3 fold | improvement in binding affinity [3]: ~ 38 fold | stability in liver microsomes [4]: significantly improved stability | stability in liver microsomes [5]: significantly improved stability | time-dependent (irreversible) inhibition of major CYP450 isoforms [6]: no signs of irreversible inhibition | hERG channel liability [1]: not considered a hERG liability | EC50 (human PPARα (hPPARα) [7]): ~0.04 µM

O=C(O)c1cc(Cl)cc(NCc2ccc(OCc3ccc(F)cc3)cc2)c1 [Compound 4r, 3-chloro-5-((4-((4-fluorobenzyl)oxy)benzyl)amino)benzoic acid]
Ratio (5/50) (human PPARα (hPPARα) [8]; ratio of relative light unit (RLU) signal at 5 μM and 50 μM compound): 0.11

O=C(O)c1cccc(NCc2ccc(OCc3ccc(F)cc3F)cc2)c1 [Compound 4j, 3-((4-((2,4-difluorobenzyl)oxy)benzyl)amino)benzoic acid]
SI (human PPARα (hPPARα) [8]; SI = EC50 (PPARγ or PPARδ) / EC50 (PPARα)): >175 | selectivity for hPPARα over other PPAR isoforms (human PPARα (hPPARα) [8]; over hPPARγ and hPPARδ, no agonism up to 100 μM): > 175 fold
